Assay results: article PMC10199020 (Nature Communications, 2023)
Bridge positions count the residues as written; N and C are the ends. Square brackets hold non-standard residues; d marks the D form. Peptide text beside a SMILES is read from it. * marks the point of attachment. 5TAMRA = CN(C)c1ccc2c(c1)Oc1cc(N(C)C)ccc1C21OC(=O)c2cc(C(=O)*)ccc21; 2Nal = N[C@@H](Cc1ccc2ccccc2c1)C(=O)O; Pen = CC(C)(S)[C@H](N)C(=O)O; Aib = CC(C)(N)C(=O)O

Experiments:
NL-IL23R with IL12Rβ1 = molecular target: T1, NL-IL23R with IL12Rβ1 (Homo sapiens, UniProt P42701+Q5VWK5); assay: P630-TMR NanoBRET binding assay, NL-IL23R with IL12Rβ1; conditions: for BRET ratio, Non-specific (Mean): Fig. 2d, NL-IL23R with IL12Rβ1, with 10 μM P630; for BRET ratio with non-specific binding subtracted (Mean): Figure 2 sheet Panel f; for BRET ratio with non-specific binding subtracted (Mean) / % maximum BRET ratio / % of P630-TMR specific Bmax (Mean): NL-IL23R + IL12RB1; for % maximum BRET ratio / % of P630-TMR specific Bmax (Mean): Figure 2 sheet Panel g, Fig. 3d; for Mean NanoBRET binding signal (Figure 7 panel b): NL-IL23R +IL12RB1
T1 construct: expressed in transfected cells; host or cells: HEK293T (ATCC CRL-3216), transient transfection
Excerpt: A standard curve was used to predict the expression level of NanoLuc labelled receptor in each experiment (Supplementary Fig. 1).
Fig. 2 Creation and characterisation of a fluorescent cyclic peptide probe for IL23R. […] Data are normally mean ± SEM from five independent experiments. Details on absolute number of data points included for each concentration are provided in the associated Source Data file. In each individual saturation experiment triplicate determinations were normally made for total binding and duplicate measurements were made for non-specific binding.
(§1) Media was removed from white 96-well microplates containing transfected cells and replaced with fluoroprobe in the presence or absence of antagonist in 50 μL Hanks Balanced Salt Solution (HBSS) with 1 mg/mL BSA (Merck). After a 1-hour incubation at 37 °C without CO2, 5 μL of HBSS containing 77 μM furimizine was added to each well (final concentration 7 μM), the plate incubated for 5-minutes and the BRET signal measured using a PheraStar FS plate reader (BMG Labtech; data acquisition software version 5.41; MARS analysis software version 3.32) with a 450 ± 30 nm and >550 nm long pass filters.
Ligand binding data were fitted with the equation:2 BRETratio=Bmax[A]/([A]+KD)+(BA+C). Where ‘Bmax’ is the maximum specific binding BRET signal, ‘[A]’ is fluorescent probe concentration, ‘B’ is the non-specific binding component’s slope and ‘C’ is the Y intercept.
Specific binding data was generated by subtracting the BRET values gained in the presence of an excess of unlabelled probe from the BRET ratios gained in the absence of unlabelled probe. Specific binding data were fit using the equation:3 Y=Bmax[B]/(B+KD) where ‘Bmax’ is the maximum specific binding signal of the curve and ‘[B]’ is the concentration of fluorescent probe.

[1] = molecular target: HiBit-IL23R and LgBit-IL12Rβ1 (Homo sapiens, UniProt Q5VWK5); assay: NanoBiT BRET binding assay; set-up: expressed in transfected cells; host or cells: HEK293T, transient transfection; conditions: for BRET ratio, Non-specific (Mean) / BRET ratio, Specific (Mean): Fig. 3b, NanoBiT complemented receptors; for % of P630-TMR specific Bmax (Mean): Fig. 3d, HiBit-IL23R + LgBit-IL12RB1
Excerpt: Finally, we utilised a NanoBiT BRET system in which a complemented luciferase with fragments bound to both receptor subunits (Fig. 3) can be used as a BRET donor to measure interactions with binary receptor complexes.
Data in b are mean ± SEM from three independent experiments. In each individual experiment, triplicate determinations were made for total binding and duplicate or triplicate determinations made for non-specific binding. Data in c are the mean values obtained in five independent experiments, each conducted with six replicates. […] Data in d are the mean ± SEM from five (NL-IL23R and NL-23R + IL12Rβ1) or three (HiBit-IL23R + LgBit-IL12Rβ1) independent experiments. Source data are provided as a Source Data file.
as §1

Chain of HiBit-IL23R and LgBit-IL12Rβ1 (Q5VWK5 24-629, other chains not shown): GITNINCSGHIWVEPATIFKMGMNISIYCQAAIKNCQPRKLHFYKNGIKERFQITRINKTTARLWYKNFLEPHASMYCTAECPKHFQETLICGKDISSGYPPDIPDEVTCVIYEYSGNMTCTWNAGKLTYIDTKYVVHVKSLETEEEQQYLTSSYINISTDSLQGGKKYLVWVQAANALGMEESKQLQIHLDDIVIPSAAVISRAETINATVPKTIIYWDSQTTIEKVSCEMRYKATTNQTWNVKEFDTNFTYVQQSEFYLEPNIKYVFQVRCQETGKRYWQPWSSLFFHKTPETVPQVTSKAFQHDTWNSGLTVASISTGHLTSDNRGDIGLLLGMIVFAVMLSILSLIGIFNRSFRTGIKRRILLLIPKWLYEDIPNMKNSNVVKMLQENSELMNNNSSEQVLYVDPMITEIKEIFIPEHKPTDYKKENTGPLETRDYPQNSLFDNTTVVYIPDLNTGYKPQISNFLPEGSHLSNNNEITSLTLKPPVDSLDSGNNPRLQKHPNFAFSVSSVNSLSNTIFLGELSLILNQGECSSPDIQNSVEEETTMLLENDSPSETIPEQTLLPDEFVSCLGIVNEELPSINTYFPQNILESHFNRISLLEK
T1 sequence (Q5VWK5 24-629, other chains not shown): as above

Q: With COc1ccc(C[C@H](NC(=O)[C@H]2NC(=O)[C@H](CCC(N)=O)NC(=O)[C@H](Cc3c[nH]c4ccccc34)NC(=O)[C@H]([C@@H](C)O)NC(=O)[C@H](CC(N)=O)NC(=O)[C@@H](NC(C)=O)C(C)(C)SSC2(C)C)C(=O)N[C@@H](Cc2ccc3ccccc3c2)C(=O)NC(C)(C)C(=O)N[C@@H](CCC(=O)O)C(=O)N[C@@H](CC(N)=O)C(=O)N[C@@H](CC(N)=O)C(=O)N[C@@H](CCCCNC(=O)c2ccc3c(c2)C(=O)OC32c3ccc(N(C)C)cc3Oc3cc(N(C)C)ccc32)C(N)=O)cc1 [P630-TMR] (Ac-[Pen]NTWQ[Pen]Y(Me)[2Nal][Aib]ENNK(5TAMRA)-NH2; disulfide 1-6) as the compound, how does the “BRET ratio, Non-specific (Mean)” value (NL-IL23R with IL12Rβ1; P630-TMR 111.111 nM) read?
A: Its value is 0.2531.

Q: And the “BRET ratio, Non-specific (Mean)” value (NL-IL23R with IL12Rβ1; P630-TMR 1000 nM)?
A: The value was 0.3233.

Q: And the “BRET ratio, Non-specific (Mean)” value (NL-IL23R with IL12Rβ1; P630-TMR 3000 nM)?
A: Its value is 0.4914.

Q: What about the “BRET ratio, Non-specific (Mean)” value (NL-IL23R with IL12Rβ1; P630-TMR […]) of the same compound?
A: Its value is 0.2709.

Q: And the “BRET ratio with non-specific binding subtracted (Mean)” value (NL-IL23R with IL12Rβ1; P630-TMR 0.457247 nM)?
A: Its value is 0.01279.

Q: What about the “BRET ratio with non-specific binding subtracted (Mean)” value (NL-IL23R with IL12Rβ1; P630-TMR 1.37174 nM) of the same compound?
A: Its value is 0.03163.

Q: And the “BRET ratio with non-specific binding subtracted (Mean)” value (NL-IL23R with IL12Rβ1; P630-TMR 4.11523 nM)?
A: The value was 0.07414.

Q: What about the “BRET ratio with non-specific binding subtracted (Mean)” value (NL-IL23R with IL12Rβ1; P630-TMR 12.3457 nM) of the same compound?
A: The value was 0.203.

Q: What about the “BRET ratio with non-specific binding subtracted (Mean)” value (NL-IL23R with IL12Rβ1; P630-TMR 37.037 nM) of the same compound?
A: The value was 0.4147.

Q: And the “BRET ratio with non-specific binding subtracted (Mean)” value (NL-IL23R with IL12Rβ1; P630-TMR 111.111 nM)?
A: The value was 0.7498.

Q: And the “BRET ratio with non-specific binding subtracted (Mean)” value (NL-IL23R with IL12Rβ1; P630-TMR 1000 nM)?
A: Its value is 1.0032.

Q: What about the “BRET ratio with non-specific binding subtracted (Mean)” value (NL-IL23R with IL12Rβ1; P630-TMR 3000 nM) of the same compound?
A: Its value is 1.107.

Q: What about the “% maximum BRET ratio / % of P630-TMR specific Bmax (Mean)” value (“% maximum BRET ratio / %” below) (NL-IL23R with IL12Rβ1; P630-TMR 0.457247 nM) of the same compound?
A: Its value is 1.58%.

Q: What about the “% maximum BRET ratio / %” value (NL-IL23R with IL12Rβ1; P630-TMR 1.37174 nM) of the same compound?
A: The value was 3.558%.

Q: And the “% maximum BRET ratio / %” value (NL-IL23R with IL12Rβ1; P630-TMR 4.11523 nM)?
A: The value was 8.249%.

Q: And the “% maximum BRET ratio / %” value (NL-IL23R with IL12Rβ1; P630-TMR 12.3457 nM)?
A: The value was 22.4565%.

Q: What about the “% maximum BRET ratio / %” value (NL-IL23R with IL12Rβ1; P630-TMR 37.037 nM) of the same compound?
A: Its value is 45.1459%.

Q: What about the “% maximum BRET ratio / %” value (NL-IL23R with IL12Rβ1; P630-TMR 111.111 nM) of the same compound?
A: Its value is 80.9844%.

Q: And the “% maximum BRET ratio / %” value (NL-IL23R with IL12Rβ1; P630-TMR 1000 nM)?
A: Its value is 106.516%.

Q: And the “% maximum BRET ratio / %” value (NL-IL23R with IL12Rβ1; P630-TMR 3000 nM)?
A: Its value is 100.024%.

Q: What about the “Mean NanoBRET binding signal (Figure 7 panel b)” value (“Mean NanoBRET binding signal” below) (NL-IL23R with IL12Rβ1; [P630-TMR] 0.8 nM) of the same compound?
A: The value was -0.0001896.

Q: And the “Mean NanoBRET binding signal” value (NL-IL23R with IL12Rβ1; [P630-TMR] 4 nM)?
A: Its value is 0.1611.

Q: What about the “Mean NanoBRET binding signal” value (NL-IL23R with IL12Rβ1; [P630-TMR] 20 nM) of the same compound?
A: The value was 0.6859.

Q: And the “Mean NanoBRET binding signal” value (NL-IL23R with IL12Rβ1; [P630-TMR] 100 nM)?
A: The value was 1.691.

Q: What about the “Mean NanoBRET binding signal” value (NL-IL23R with IL12Rβ1; [P630-TMR] 500 nM) of the same compound?
A: The value was 2.556.

Q: And the “Mean NanoBRET binding signal” value (NL-IL23R with IL12Rβ1; [P630-TMR] 2000 nM)?
A: Its value is 2.7354.

Q: What about the Kd (NL-IL23R with IL12Rβ1; NL-IL23R and IL12Rβ1, mean ± SEM) of the same compound?
A: Its Kd is 51.1 ± 7.3 nM.

Q: What about the “BRET ratio, Non-specific (Mean)” value ([1]; P630-TMR 1.37174 nM) of the same compound?
A: Its value is 0.09875.

Q: What about the “BRET ratio, Specific (Mean)” value ([1]; P630-TMR 1.37174 nM) of the same compound?
A: Its value is 0.105.

Q: What about the “BRET ratio, Non-specific (Mean)” value ([1]; P630-TMR 4.11523 nM) of the same compound?
A: Its value is 0.09641.

Q: What about the “BRET ratio, Specific (Mean)” value ([1]; P630-TMR 4.11523 nM) of the same compound?
A: The value was 0.1138.

Q: And the “BRET ratio, Non-specific (Mean)” value ([1]; P630-TMR 12.3457 nM)?
A: Its value is 0.09986.

Q: What about the “BRET ratio, Specific (Mean)” value ([1]; P630-TMR 12.3457 nM) of the same compound?
A: Its value is 0.141.

Q: And the “BRET ratio, Non-specific (Mean)” value ([1]; P630-TMR 37.037 nM)?
A: Its value is 0.1012.

Q: And the “BRET ratio, Specific (Mean)” value ([1]; P630-TMR 37.037 nM)?
A: Its value is 0.1913.

Q: What about the “BRET ratio, Non-specific (Mean)” value ([1]; P630-TMR 111.111 nM) of the same compound?
A: Its value is 0.1006.

Q: And the “BRET ratio, Specific (Mean)” value ([1]; P630-TMR 111.111 nM)?
A: The value was 0.2562.

Q: What about the “BRET ratio, Non-specific (Mean)” value ([1]; P630-TMR 1000 nM) of the same compound?
A: Its value is 0.1066.

Q: And the “BRET ratio, Specific (Mean)” value ([1]; P630-TMR 1000 nM)?
A: Its value is 0.3269.

Q: And the “BRET ratio, Non-specific (Mean)” value ([1]; P630-TMR 3000 nM)?
A: Its value is 0.1175.

Q: What about the “BRET ratio, Specific (Mean)” value ([1]; P630-TMR 3000 nM) of the same compound?
A: The value was 0.3365.

Q: And the “% of P630-TMR specific Bmax (Mean)” value ([1]; P630-TMR 1.37174 nM)?
A: The value was 2.813%.

Q: And the “% of P630-TMR specific Bmax (Mean)” value ([1]; P630-TMR 4.11523 nM)?
A: Its value is 8.07%.

Q: And the “% of P630-TMR specific Bmax (Mean)” value ([1]; P630-TMR 12.3457 nM)?
A: The value was 19.2912%.

Q: What about the “% of P630-TMR specific Bmax (Mean)” value ([1]; P630-TMR 37.037 nM) of the same compound?
A: Its value is 41.1077%.

Q: What about the “% of P630-TMR specific Bmax (Mean)” value ([1]; P630-TMR 111.111 nM) of the same compound?
A: The value was 71.2465%.

Q: What about the “% of P630-TMR specific Bmax (Mean)” value ([1]; P630-TMR 1000 nM) of the same compound?
A: Its value is 99.3007%.

Q: What about the “% of P630-TMR specific Bmax (Mean)” value ([1]; P630-TMR 3000 nM) of the same compound?
A: The value was 100%.

Q: And the Kd ([1]; HiBit-IL23R and LgBit-IL12Rβ1, mean ± SEM)?
A: Its Kd is 53.5 ± 4.4 nM.
